Reference: patent US20040191842A1, “Chemopreventive and therapeutic aspects of polyphenolic compositions and assays” (Medical College of Georgia Research Institute, Inc., priority 2002, published 2004)
“Also recorded” adds a separate entry of the source.

Tests used:
OSC-2 cells [1] = assay: Intracellular ROS levels (DFDA assay), OSC-2 cells; assay type: cell-based, human; conditions: 5 mM diamide or relatively high H2O2, 60 minutes
Method: (§1) Measurement of intracellular ROS levels. The ROS assay measures the accumulation of intracellular ROS levels. The non-fluorescent dye DFDA passively diffuses into cells, where the acetates are cleaved by intracellular esterases. […] Thus, values of the fluorescence in the cell cultures are constantly rising in this assay. Cells (1.5×10^4 cells/well) were incubated with Hallam's physiological saline (HPS) containing DFDA (10 μM) in a 96-well microplate for 30 minutes at 37° C. After the incubation, cells were washed three times with HPS and then incubated with HPS containing EGCG (15-200 μM) or diamide (5 mM) for the indicated time periods. The intracellular ROS levels were measured by using a fluorescence plate reader (BIO-TEK FL600, Bio-Tek Instruments, Inc., Winooski, Vt.), at an excitation wavelength of 485 nm and an emission wavelength of 530 nm.
as §1, with “assay (DFDA assay)” for “assay”, “dye dichlorofluorescein diacetate (DFDA)” for “dye DFDA”, “this assay due to the accumulation of ROS.” for “this assay.”, “EGCG (50-200” for “EGCG (15-200”, “indicated times.” for “indicated time periods.”

NHEK [2] = assay: Intracellular ROS levels (DFDA assay), NHEK; assay type: cell-based, human; conditions: 5 mM diamide, 1-minute incubation
Method: Measurement of intracellular ROS levels. The ROS assay measures the accumulation of intracellular ROS levels. The non-fluorescent dye DFDA passively diffuses into cells, where the acetates are cleaved by intracellular esterases. […] Thus, values of the fluorescence in the cell cultures are constantly rising in this assay. […] The intracellular ROS levels were measured by using a fluorescence plate reader (BIO-TEK FL600, Bio-Tek Instruments, Inc., Winooski, Vt.), at an excitation wavelength of 485 nm and an emission wavelength of 530 nm.

caspase-3 = assay: Caspase-3 activity, OSC-2 and OSC-4 cells pretreated with catalase; assay type: cell-based, human; conditions: 200 U/ml catalase, 24 hour
Method: Caspase-3 activity assay. The caspase-3 apoptosis detection kit (Santa Cruz Biotechnology, Inc., Santa Cruz, Calif.) was used to measure caspase-3 activity. Cells (10^5 cells/well) were plated in triplicate in a 24-well tissue culture plate. […] To each well, 100 μl of 2×reaction buffer was added with 10 mM dithiothreitol. Finally, 5 μl of DEVD-AFC substrate was added to each well containing cell lysates. The reaction mixtures were incubated for 1 hour at 37° C., and caspase-3 activity in each well was measured using a fluorescence microplate reader ([…]luor Plus, Tecan US, Research Triangle Park, N.C.) at a wavelength of 405 nm for excitation and 505 nm for emission.

OSC-2 and OSC-4 cells [3] = assay: MTT assay, OSC-2 and OSC-4 cells pretreated with catalase, 3-AT or NAC; assay type: cell-based, human
Description: (§2) Succinate dehydrogenase activity assay (MTT assay).

OSC-2 and OSC-4 cells [4] = assay: BrdU incorporation, OSC-2 and OSC-4 cells with exogenous catalase; assay type: cell-based, human; conditions: 200 U/ml catalase, 200 μM EGCG, 24 h
Method: DNA synthesis assay. DNA synthesis was analyzed by a BrdU cell proliferation assay kit (Oncogene Research Products, Boston, Mass.). […] After the treatment, cells were labeled with BrdU for 2 hours at 37° C. and reacted with anti-BrdU antibody. Unbound antibody in each well was removed by rinsing, and horseradish peroxidase-conjugated goat anti-mouse IgG antibody was added to each well. The color reaction to visualize the secondary antibody was carried out according to the protocol provided by the manufacturer.

p57 (KIP2) = assay type: cell-based, human; conditions: for p57 expression, carcinogen alone: 0.12 μM BaP or 10 μM NNK alone
Method: Cell treatments. For 24 hours treatments, exponentially growing cells with 40% confluency (to minimize differentiation and spontaneous apoptosis) were either maintained in 50 μM EGCG (2.29 mg/100 ml) or 0.2 mg/ml of GTPPs in tissue culture flasks (25 cm^2). Control flasks contained cells without any treatment. To test whether BaP or NNK interfere with the induction of p57, the human keratinocytes were treated with 0.12 μM BaP, or 10 μM NNK, either alone or in combination with 50 μM EGCG. To examine the time course of p57 induction, cells were treated with 50 μM EGCG and harvested for Western analysis at 30 minutes, 2 hours, 6 hours, and 24 hours. The human keratinocytes were treated when the cell density reached 85-90% confluency (to mimic the epithelium).
In a parallel series of experiments, treatment with EGCG was performed with 30 micrograms per milliliter (μg/ml) cycloheximide added to the keratinocyte media 30 minutes prior to the addition of EGCG. The dose-response experiments were performed using EGCG concentrations at 30, 50 100, and 200 μM in the culture media for 24 hours.
Western blot analysis. Cells from different treatment groups were lysed in RIPA buffer (1% NP-40, 1% sodium deoxycholate, 0.1% SDS, 0.15 M NaCl, 0.01 M sodium phosphate, pH 7.2, and 1% Trasylol) containing proteinase inhibitors (1 mM PMSF, 1 μg/ml each of aprotinin, leupeptin, and pepstatin). The concentration of protein in each sample was determined using the BioRad DC Protein Assay and spectrophotometry. Fifty micrograms (μg) of protein from each sample and a BioRad molecular weight standard marker were run on a 10% SDS-PAGE, followed by transfer to nitrocellulose membranes. Nonspecific binding to membranes was blocked with 10% nonfat milk. Specific primary polyclonal (rabbit) antibody against p57 and a horse radish peroxidase-conjugated goat anti-rabbit secondary antibody were used in conjunction with the ECL Chemiluminescence Kit and membranes were exposed to radiographic films for detection.

NHEK [5] = assay: MTT assay (SDH activity), NHEK; assay type: cell-based, human
Description: as §2

OSC-4 cells = assay: MTT assay (SDH activity), OSC-4 cells; assay type: cell-based, human
Method: MTT [3-(4,5-dimethylthiazol-2-yl)-2,5-diphenyl tetrazolium bromide] assay. This method directly detects the activity of mitochondrial succinate dehydrogenase (SDH). Changes in SDH activity is a measurement of cell viability when stress is introduced in cell culture through chemical or physical means. Cells (1.5×10^4 cells/well) were seeded in a 96-well microplate and treated with the indicated doses of EGCG for 24 hours. After the treatment, the cells in each well were washed with 200 μl of phosphate-buffered saline (PBS), incubated with 100 μl of 2% MTT in a solution of 0.05 M Tris, 0.5 mM MgCl2, 2.5 mM CoCl2, and 0.25 M disodiumn succinate as substrate (Sigma) at 37° C. for 30 minutes. Cells were fixed in situ by the addition of 100 μl of 4% formalin in 0.2 M Tris (pH 7.7), and after a 5 minute incubation at room temperature liquid was removed and the wells were allowed to dry. Each well was rinsed with 200 μl water and cells were solubilized by the addition of 100 μl of 6.35% 0.1 N NaOH in DMSO. The colored formazan product was measured by a Thermo MAX micro plate reader (Molecular Devices Corp., Sunnyvale, Calif.) at a wavelength of 562 nm. Experiments were repeated three times with triplicate samples for each experiment.

OSC-2 cells [6] = assay: MTT assay (mitochondrial SDH activity), OSC2 (OSC-2) cells
Method: This method detects the activity of mitochondrial succinate dehydrogenase (SDH). In a 96-well plate, 1.5×10^4 cells were seeded in each well. After variety of treatments, 100 μl of 2% MTT was added to each well and the plate was incubated at 37° C. for 30 minutes. 100 μl of 0.2 M Tris (pH 7.7) with 4% formalin was added to each well. After incubation at room temperature for 5 minutes, liquid was removed and the wells were allowed to dry. Each well was rinsed with 200 μl water followed by addition of 100 μl DMSO (6.35% 0.1 N NaOH in DMSO) to each well. The coloration was measured by a Thermo MAX microplate reader (Molecular Devices Corp. Sunnyvale, Calif. using wavelengths of 562 nm. Experiments were repeated three times with triplicate samples for each experiment.
This method directly detects the activity of mitochondrial succinate dehydrogenase (SDH). Changes in SDH activity is a measurement of cell viability when stress is introduced in cell culture through chemical or physical means. Cells (1.5×10^4 cells/well) were seeded in a 96-well microplate and treated with the indicated doses of EGCG for 24 hours. After the treatment, the cells in each well were washed with 200 μl of phosphate-buffered saline (PBS), incubated with 100 μl of 2% MTT in a solution of 0.05 M Tris, 0.5 mM MgCl2, 2.5 mM CoCl2, and 0.25 M disodiumn succinate as substrate (Sigma) at 37° C. for 30 minutes. Cells were fixed in situ by the addition of 100 μl of 4% formalin in 0.2 M Tris (pH 7.7), and after a 5 minute incubation at room temperature liquid was removed and the wells were allowed to dry. Each well was rinsed with 200 μl water and cells were solubilized by the addition of 100 μl of 6.35% 0.1 N NaOH in DMSO. The colored formazan product was measured by a Thermo MAX micro plate reader (Molecular Devices Corp., Sunnyvale, Calif.) at a wavelength of 562 nm. […]
This method directly detects the activity of mitochondrial succinate dehydrogenase (SDH). […] Solubilized colored formazan product was measured using a Thermo MAX microplate reader (Molecular Devices Corp., Sunnyvale, Calif.) at a wavelength of 562 nm.

CN(C)C(=O)/N=N/C(=O)N(C)C [diamide, reference compound]
ROS accumulated in OSC-2 cells relative to OSC-4 cells (OSC-2 cells [1]): doubled that in OSC-4 cells; also recorded: approximately two | intracellular ROS levels vs endogenous (NHEK [2]): induced ROS

catalase
effect of exogenous catalase on EGCG-induced caspase 3 activation (caspase-3): partially inhibited EGCG-induced caspase 3 activation | effect of exogenous catalase on EGCG-induced SDH reduction in OSC-4 cells (OSC-2 and OSC-4 cells [3]; 200 U/ml catalase, 200 μM EGCG): partially reversed the effects of 200 μM EGCG | effect of exogenous catalase on EGCG-induced SDH reduction (OSC-2 and OSC-4 cells [3]; 200 U/ml catalase, 200 μM EGCG, 24 h): had no effect on this reduction | effect of exogenous catalase on BrdU incorporation with EGCG (OSC-2 and OSC-4 cells [4]): had no effect on the rates of BrdU incorporation

c1ccc2c(c1)cc1ccc3cccc4ccc2c1c34 [BaP, reference compound]
p57 expression, carcinogen alone (p57 (KIP2)): did not alter p57 expression

CC(=O)N[C@@H](CS)C(=O)O [NAC, N-acetyl-L-cysteine]
effect of NAC on EGCG-induced cytotoxicity (OSC-2 and OSC-4 cells [3]; 10 mM NAC 2 hour pretreatment): failed to rescue both cell lines from EGCG-induced cytotoxicity | effect of NAC on H2O2 cytotoxicity (OSC-2 and OSC-4 cells [3]; 10 mM NAC 2 hour pretreatment, H2O2 250 and 500 μM): significantly inhibited the cytotoxic effect of H2O2

OO [H2O2, hydrogen peroxide]
SDH activity remained (NHEK [5]; 1 mM H2O2, 24 hours): 75% | reduction of SDH activity (NHEK [5]; 1 mM H2O2, 24 hours): 25% | ROS accumulated in OSC-2 cells relative to OSC-4 cells (OSC-2 cells [1]): approximately two | SDH activity (OSC-4 cells; 100 μM H2O2): had no significant effect on SDH activity | H2O2 concentration needed to cause […]% reduction of SDH activity (OSC-4 cells; 24 hours): 250 µM | SDH activity (OSC-2 cells [6]; 50 μM H2O2, 24 hour): had no effect on the SDH activity | H2O2 concentration needed to cause […]% reduction of SDH activity (OSC-2 cells [6]; 24 hours): 250 µM

CN(CCCC(=O)c1cccnc1)N=O [NNK, reference compound]
p57 expression, carcinogen alone (p57 (KIP2)): did not alter p57 expression

C[C@@H]1C[C@@H]([C@H](O)CC2CC(=O)NC(=O)C2)C(=O)[C@@H](C)C1 [cycloheximide, reference compound]
p57 protein levels with cycloheximide (p57 (KIP2); 30 μg/ml cycloheximide plus 50 μM EGCG): gradual decline in p57 protein levels

Nc1nc[nH]n1 [3-AT, 3-amino-1,2,4-triazole]
susceptibility of NHEK to EGCG cytotoxicity after 3-AT (NHEK [5]; pretreatment with 3-AT): did not become susceptible to EGCG cytotoxicity | effect of 3-AT on EGCG-induced decline of SDH activity (OSC-2 and OSC-4 cells [3]; 30 μM 3-AT 2 hours, 200 μM EGCG): had no significant effect on the decline of mitochondrial SDH activity
